The values below come from PMC5522071, “Preclinical development of G1T38: A novel, potent and selective inhibitor of cyclin dependent kinases 4/6 for use as an oral antineoplastic in patients with CDK4/6 sensitive tumors” (Oncotarget, 2017).

One data set has as its system ER+ MCF7 xenograft. As to the kind of experiment: MCF-7 breast cancer xenograft model. The data set is classed as in vivo, mice. To be noted: for tumor growth inhibition (TGI): after 27 days of treatment. On the procedure: Tumors were measured every 3 to 4 days during treatment for up to 20 days post-treatment. […] South Texas Accelerated Research Therapeutics (START; San Antonio, Texas) evaluated the antitumor activity of G1T38 in a START Cell-Based Xenograft (START-CBX) tumor model, MCF-7, representing human breast cancer. Data collected from this efficacy study included animal weights, observations, and tumor dimensions. This information was used to determine agent tolerability based on weight change and gross physiologic changes, and anticancer activity based on tumor growth inhibition or regression. Study endpoint was Day 60. MCF-7 cells were harvested from culture and injected into immune-deficient mice and the study initiated at a mean tumor volume of approximately 150-250 mm^3. […] Tumor growth inhibition (%TGI) was calculated using the following equation: %TGI=(1-(((TVtmtfinal-TVtmtinitial))/((AVERAGE(TVctlfinal))-(AVERAGE(TVctlinital)))))*100.

The next data set deals with H1975 xenograft. As to the kind of experiment: H1975 NSCLC xenograft model. It counts as in vivo, mice. The source says:
To evaluate the efficacy of G1T38 in combination with EGFR inhibitors, the H1975 xenograft model was utilized. H1975 is a human NSCLC that harbors the […] mutations rendering resistance to erlotinib treatment.
Afatinib is an irreversible second generation pan-ErbB inhibitor developed as a first-line treatment of patients with metastatic NSCLC whose tumors harbor EGFR mutations or deletions as well as in patients with metastatic disease that progressed after platinum-based chemotherapy.
Female NCI Ath/nu mice were implanted with H1975 NSC lung adenocarcinoma model. Once tumors reached an average size of 100- 150 mm^3, mice were randomized into treatment cohorts. Mice were orally administered daily afatinib (20 mg/kg, Genentech/OSI), erlotinib (70 mg/kg, LC Labs), or G1T38 (50 or 100 mg/kg), as single agents or in combination (G1T38 + erlotinib or G1T38 + afatinib) for the duration of the study. Tumors were measured twice weekly until mice reached tumor burden of 1500 mm^3.

Details of data set [1]: method as in earlier work. The note with it: Mouse; cited from earlier work.
Details of data set [2]: method as in earlier work. The note with it: Rat; cited from earlier work.
On the set-up of data set [3]: method as in earlier work. The note with it: Dog; cited from earlier work.
For data set [4] the following is noted: cited from earlier work.
A further data set can be described thus: 7-day continuous oral PK. To be noted: C57BL/6, mouse, plasma.
A further data set deals with neutrophils. As to the kind of experiment: Peripheral blood analysis, 28 days daily oral dosing.

Like-named read-outs stand apart in the source and are kept apart here.

For the molecule `CC/C(=C(\c1ccccc1)c1ccc(/C=C/C(=O)O)cc1)c1ccccc1` [GW5638, reference compound], the “TGI as single agents (GW5638 study)” value in the data set on ER+ MCF7 xenograft (G1T38 25 or 50 mg/kg alone, GW5638 25 mg/kg alone) was “modest TGI”.
`CN(C)C/C=C/C(=O)Nc1cc2c(Nc3ccc(F)c(Cl)c3)ncnc2cc1O[C@H]1CCOC1` [afatinib, reference compound]: the “time at which tumors began to regrow” value in the data set with H1975 xenograft (afatinib only cohort, 20 mg/kg) is not above 14 days.
Consider `C#Cc1cccc(Nc2ncnc3cc(OCCOC)c(OCCOC)cc23)c1` [erlotinib, reference compound], for which the “difference from vehicle treated mice” value with H1975 xenograft (70 mg/kg daily) is “no significant difference”.
By half-life is commonly meant the time needed for the level to fall by half in the phase considered. With `CC(=O)c1c(C)c2cnc(Nc3ccc(N4CCNCC4)cn3)nc2n(C2CCCC2)c1=O` [palbociclib], the “tumor growth inhibition (TGI)” value with ER+ MCF7 xenograft (10 mg/kg once daily oral) is recorded as 18%; in the data set with ER+ MCF7 xenograft (50 mg/kg once daily oral), 66%; with ER+ MCF7 xenograft (100 mg/kg once daily oral) it was 87%. Moreover, the “time to tumor regression” value in the data set with ER+ MCF7 xenograft (100 mg/kg daily oral) is recorded as not above 10 days. The T1/2 is 2.5 to 4.2 h in data set [1], 2.4 to 4.9 h in data set [2], 20.7 h in data set [3] and 29 h in data set [4] (Human). The half-life in data set [4] (in humans) is more than 24 h. Also, the concentration at 24 h in “7-day continuous oral PK” was approximately 600 nM. In addition, the “decrease in neutrophils compared with G1T38” value in the data set with neutrophils was “similar”.
